Laboratory results reported in patent US20070276030A1, “Pyranobenzothiophene derivatives to treat infection with hepatitis c virus” (priority 2003, published 2007).
Where two headings read alike, the source gives them in different places.

How the values were obtained:
[1] = biological target: T1, HCV RdRp NS5B d21BK (BK strain, genotype 1b) (Hepatitis C virus genotype 1b, UniProt P26663); experiment: Hepatitis C polymerase (NS5B) inhibition, radioactive filter assay; type: biochemical; conditions: for inhibition at 20 µM: read-out: HCV pol % inh at 20 μM
T1 construct: NS5B from the BK strain (genotype 1b) is expressed in E. coli as a protein in which the 21 C-terminal amino acids are replaced; made in house; host or cells: E. coli
Source text: The ability of the compounds of the present invention to inhibit Hepatitis C Polymerase was established by the following experimental procedure:
NS5B from the BK strain (genotype 1b) is expressed in E. coli as a protein in which the 21 C-terminal amino acids are replaced with a short linker and a hexahistidine tag ([…]). The purified protein is mixed with radioactive nucleotides and allowed to replicate a heteropolymeric RNA substrate, primed by an endogenous short hairpin, resulting in an approximately 760 nt product. The radioactive product is captured on a filter and quantitated after removal of the unincorporated nucleotides.
Dilute nucleotides 1:1000 to 10 μM (GTP and CTP) or 1:100 to 100 μM (ATP and UTP) into RNase free water.
(1) Compounds 10 μl at 10 μg/ml in 15% Dimethylsulfoxide (DMSO)
Add 20 μl enzyme mix into each well of the assay plate. Incubate compound and enzyme at room temperature for 15 minutes.
(3) Template Mix—Prepare Ahead
Spin down a tube of RNA (5 μg/tube stored in 75% ethanol and 0.3 M sodium acetate) in a microcentrifuge for 20 minutes at 4° C. One tube is enough for 1-1.5 plates. Remove as much ethanol from the tube as possible by inverting the tube. Be gentle, pellet RNA may not adhere to the tube. Vacuum dry the RNA. Resuspend the RNA by adding 1 ml of DEPC water, close the cap of the tube tightly. To dissolve RNA, incubate RNA solution on ice for ˜60 minutes and gently vortex. Spin briefly to ensure all RNA solution is down to the bottom of the tube before opening cap. Gently transfer RNA solution into a 5 ml or larger tube. Add another 3 ml of DEPC water (total 4 ml of volume).
Add the following volumes of reagents
Add 20 μl template mix per reaction (i.e. 20 ng of pOF per reaction or ˜3 nM). (4) Incubate reaction at room temperature (22-25° C.) for 2 hours. (5) Stop reaction by adding 50 μl of 170 mM EDTA.
Final concentration of EDTA is 85 mM.
(6) Prewet filters of Millipore multiscreen assay plate by adding […] of 0.5 M sodium phosphate buffer, pH 7.0 into each well. Let stand at room temperature for 2-3 minutes.
(7) Place the multiscreen filter plate onto a Millipore Manifold and turn on vacuum to allow buffer to flow through. Turn off vacuum. Transfer 80 μl of the reaction product into each well of the filter plate. Let stand for 2-3 minutes. Turn on vacuum to filter reaction product.
(8) Turn off vacuum. Add 200 μl of 0.5 M sodium phosphate buffer, pH 7.0 into each well to wash filter. Turn on vacuum.
Repeat step (8) three more times.
(9) Remove polypropylene bottom. Spot dry filter at the bottom with paper towel. Air dry filter plate on a bench for 1 hour. Add 40 μl Super Mix scintillant. Seal top of the plate with a tape. Place plate into a Packard carrier or micro-beta carrier.
(10) Count plate using a Packard Topcount or micro-beta counter. Count (for example using Program 10) for ^33P in Top count or ^33P program in micro-beta.
Percent inhibition is calculated after background subtraction as a percent reduction of activity relative to the positive control (average value of the plate excluding the negative controls). For the primary screen hits were chosen as showing ≧75% inhibition.
See. Ferrari et al. 1999. J. Virology 73:1649-1654: “Characterization of soluble Hepatitis C virus RNA-dependent RNA polymerase expressed in E. coli and Takamizawa et all 1991” and J. Virology 65:1105-1113: “Structure and characterization of the Hepatitis C virus genome isolated from human carriers,” both references are hereby incorporated by reference in their entireties, specifically methods of testing inhibition of Hepatitis C Polymerase with test compounds.

[2] = U.S. Pat. No. 4,021,451; cited from earlier work

T1 sequence (P26663 2420-2989): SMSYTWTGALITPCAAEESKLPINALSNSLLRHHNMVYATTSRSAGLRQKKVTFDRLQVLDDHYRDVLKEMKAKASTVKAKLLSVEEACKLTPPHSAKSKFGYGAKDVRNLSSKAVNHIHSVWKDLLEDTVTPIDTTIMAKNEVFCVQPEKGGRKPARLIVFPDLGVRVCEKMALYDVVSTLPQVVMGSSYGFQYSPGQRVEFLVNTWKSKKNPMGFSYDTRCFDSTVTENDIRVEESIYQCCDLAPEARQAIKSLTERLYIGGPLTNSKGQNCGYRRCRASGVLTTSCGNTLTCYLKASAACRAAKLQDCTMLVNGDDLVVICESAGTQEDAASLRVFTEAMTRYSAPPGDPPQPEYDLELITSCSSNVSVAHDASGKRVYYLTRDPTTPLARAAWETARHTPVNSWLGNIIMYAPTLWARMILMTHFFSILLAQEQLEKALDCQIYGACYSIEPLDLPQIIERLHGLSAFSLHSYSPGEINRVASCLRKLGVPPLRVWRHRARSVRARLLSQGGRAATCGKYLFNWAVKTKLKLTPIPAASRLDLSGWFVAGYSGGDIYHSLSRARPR

For `CCCC1(CC(=O)O)OCCc2c1sc1c(C)ccc(Br)c21` (stereo not drawn) [Example 1, (5-bromo-8-methyl-1-propyl-3,4-dihydro-1H-[1]benzothieno[2,3-c]pyran-1-yl)acetic acid], the IC50 [1] was 180 nM.
`CCCC1(CC(=O)O)OCCc2c1sc1c(C)ccc(C#N)c21` (stereo not drawn) [Example 2, (5-cyano-8-methyl-1-propyl-3,4-dihydro-1H-[1]benzothieno[2,3-c]pyran-1-yl)acetic acid] showed an IC50 [1] of 17700 nM.
With `CCC[C@]1(CC(=O)O)OCCc2c1sc1c(C)ccc(C#N)c21` [Example 3, [(1R)-5-cyano-8-methyl-1-propyl-3,4-dihydro-1H-[1]benzothieno[2,3-c]pyran-1-yl]acetic acid] the IC50 [1] was 620 nM.
Compound `CCC[C@@]1(CC(=O)O)OCCc2c1sc1c(C)ccc(C#N)c21` [Example 4, [(1S)-5-cyano-8-methyl-1-propyl-3,4-dihydro-1H-[1]benzothieno[2,3-c]pyran-1-yl]acetic acid] has an IC50 [1] of 1900 nM.
With `CCCC1(CC(=O)O)OCCc2c1sc1c(Cl)ccc(Cl)c21` (stereo not drawn) [Example 5, (5,8-dichloro-1-propyl-3,4-dihydro-1H-[1]benzothieno[2,3-c]pyran-1-yl)acetic acid] the IC50 [1] was > 20000 nM and the inhibition at 20 µM [1] was < 10%.
`CC1(CC(=O)O)OCCc2c1sc1c(Cl)ccc(Cl)c21` (stereo not drawn) [Example 6, (5,8-chloro-1-methyl-3,4-dihydro-1H-[1]benzothieno[2,3-c]pyran-1-yl)acetic acid] gave an IC50 ([1]; NS5B BK strain, read-out: HCV pol BK IC50) of 280 nM.
In the case of `CCCCC1(CC(=O)O)OCCc2c1sc1c(Cl)ccc(Cl)c21` (stereo not drawn) [Example 7, (1-butyl-5,8-dichloro-3,4-dihydro-1H-[1]benzothieno[2,3-c]pyran-1-yl)acetic acid], the IC50 [1] is reported as 320 nM.
With `CCC1(CC(=O)O)OCCc2c1sc1c(Cl)ccc(Cl)c21` (stereo not drawn) [Example 8, (5,8-dichloro-1-ethyl-3,4-dihydro-1H-[1]benzothieno[2,3-c]pyran-1-yl)acetic acid] the IC50 [1] was 170 nM.
Work on `CCCC1(CC(=O)O)OCCc2c1sc1c(C)cc(F)cc21` (stereo not drawn) [Example 9, (6-fluoro-8-methyl-1-propyl-3,4-dihydro-1H-[1]benzothieno[2,3-c]pyran-1-yl)acetic acid] yielded an IC50 [1] of 2900 nM.
With `CCCC1(CC(=O)O)OCCc2c1sc1c(C)cc(F)c(C#N)c21` (stereo not drawn) [Example 10, (5-cyano-6-fluoro-8-methyl-1-propyl-3,4-dihydro-1H-[1]benzothieno[2,3-c]pyran-1-yl)acetic acid] the IC50 [1] was 130 nM.
Work on `CCC[C@@]1(CC(=O)O)OCCc2c1sc1c(C)cc(F)c(C#N)c21` [Example 12, [(1S)-5-cyano-6-fluoro-8-methyl-1-propyl-3,4-dihydro-1H-[1]benzothieno[2,3-c]pyran-1-yl]acetic acid] yielded an IC50 [1] of 5400 nM.
With `CC1(CC(=O)O)OCCc2c1sc1ccccc21` (stereo not drawn) [Example 13, (1-methyl-3,4-dihydro-1H-[1]benzothieno[2,3-c]pyran-1-yl)acetic acid] the IC50 [1] was > 20000 nM and the inhibition at 20 µM [1] was < 10%.
In the case of `CCC1(CC(=O)O)OCCc2c1sc1ccccc21` (stereo not drawn) [Example 14, (1-ethyl-3,4-dihydro-1H-[1]benzothieno[2,3-c]pyran-1-yl)acetic acid], the IC50 [1] is reported as > 20000 nM and the inhibition at 20 µM [1] is reported as < 10%.
For `CCCC1(CC(=O)O)OCCc2c1sc1ccccc21` (stereo not drawn) [Example 15, (1-propyl-3,4-dihydro-1H-[1]benzothieno[2,3-c]pyran-1-yl)acetic acid], the IC50 [1] was > 20000 nM and the inhibition at 20 µM [1] was < 10%.
With `CCCCC1(CC(=O)O)OCCc2c1sc1ccccc21` (stereo not drawn) [Example 16, (1-butyl-3,4-dihydro-1H-[1]benzothieno[2,3-c]pyran-1-yl)acetic acid] the IC50 [1] was > 20000 nM and the inhibition at 20 µM [1] was < 10%.
For `O=C(O)CC1(c2ccccc2)OCCc2c1sc1ccccc21` (stereo not drawn) [Example 17, (1-phenyl-3,4-dihydro-1H-[1]benzothieno[2,3-c]pyran-1-yl)acetic acid], the IC50 [1] was > 20000 nM and the inhibition at 20 µM [1] was 27%.
For `CC(C)C1(CC(=O)O)OCCc2c1sc1ccccc21` (stereo not drawn) [Example 18, (1-isopropyl-3,4-dihydro-1H-[1]benzothieno[2,3-c]pyran-1-yl)acetic acid], the IC50 [1] was > 20000 nM and the inhibition at 20 µM [1] was < 10%.
With `CCOC(=O)CC1(CC(=O)O)OCCc2c1sc1ccccc21` (stereo not drawn) [Example 19, [1-(2-ethoxy-2-oxoethyl)-3,4-dihydro-1H-[1]benzothieno[2,3-c]pyran-1-yl]acetic acid] the IC50 [1] was > 20000 nM and the inhibition at 20 µM [1] was < 10%.
For `CC1(c2ccc(CC(=O)O)cc2)OCCc2c1sc1ccccc21` (stereo not drawn) [[p-(3,4-dihydro-1-methyl-1H-[1]benzothieno[2,3-c]pyran-1-yl)phenyl]-acetic acid], the “biological activity such as antiinflammatory or antibacterial or antifungal activity” value [2] is listed as “lacks any biological activity”.
